Assays:
Assay type in all cases: in vivo
[1] = test system: Sexually immature Sprague-Dawley rats; assay: Rat uterotrophic test procedure (Procedure 1); conditions: compound 2 mg/rat + 17α-ethinyl, 17β-estradiol 0.06 μg/rat s.c. (antagonist mode)
[2] = test system: Sexually immature 129 SvE mice; assay: Mouse uterotrophic test procedure (Procedure 2); conditions: compound 50 mg/kg s.c., days 22-25
[3] = test system: ovariectomized Sprague-Dawley rats; assay: Bone mineral density in the ovariectomized rat (pQCT, proximal tibia); conditions: compound 10 mg/kg s.c.; 5 weeks
Male HLA-B27 rats [4] = assay: HLA rat test for inflammatory bowel disease: stool character (3 = diarrhea; 2 = soft stool; 1 = normal stool)
Male HLA-B27 rats [5] = assay: HLA-B27 rat test for inflammatory bowel disease: histological scoring of colon; conditions: Study C; oral
Protocol: Representative metabolites of compounds of the invention were evaluated in the HLA rat standard pharmacological test procedure, which emulates inflammatory bowel disease in humans. The following briefly describes the procedure used and results obtained. […] Louis) and water. Stool quality was observed daily and graded according to the following scale: Diarrhea=3; soft stool=2; normal stool=1. At the end of the study, serum was collected and stored at −70° C. A section of colon was prepared for histological analysis and an additional segment was analyzed for myeloperoxidase activity. In Study A, rats (22-26 weeks old) were dosed subcutaneously once per day for seven days with one of the regimens listed below. […] Histological analysis. Colonic tissue was immersed in 10% neutral buffered formalin. Each specimen of colon was separated into four samples for evaluation. The formalin-fixed tissues were processed in a Tissue-Tek® vaccum infiltration processor (Miles, Inc; West Haven, Conn.) for paraffin embedding. The samples were sectioned at 5 μm and then stained with hematoxylin and eosin (H&E) for blinded histological evaluations using a scale modified after Boughton-Smith. After the scores were completed, the samples were unblinded, and data were tabulated and analyzed by ANOVA linear modeling with multiple mean comparisons. Sections of colonic tissue were evaluated for several disease indicators and given relative scores.

Question: With `C=Cc1cc(O)cc2nc(-c3ccc(O)c(F)c3)oc12` [Example 24, 2-(3-FLUORO-4-HYDROXYPH ENYL)-7-VI NYL-1,3-BENZOXAZOL-5-OL] as the molecule, how does the “mean uterine weight ± SEM” value [1] read?
Answer: The value was 80.7 ± 5.3 mg.

Question: And the “mean uterine weight ± SEM” value [2]?
Answer: Its value is 10.7 ± 0.9 mg.

Question: And the “Total Bone Mineral Density (mean ± SEM)” value [3]?
Answer: The value was 517.56 ± 9.67 mg/mL.

Question: And the “Trabecular Bone Mineral Density (mean ± SEM)” value [3]?
Answer: Its value is 321.16 ± 9.04 mg/mL.

Question: And the “Stool quality” value (Male HLA-B27 rats [4]; Study A, 50 mg/kg s.c.)?
Answer: Its value is “Stool quality was improved”.

Question: And the “Stool Character (group's average score)” value (Male HLA-B27 rats [4]; Study A, 50 mg/kg s.c. once per day, Day 1)?
Answer: The value was 2.8.

Question: And the “Stool Character (group's average score)” value (Male HLA-B27 rats [4]; Study A, 50 mg/kg s.c. once per day, Day 2)?
Answer: The value was 2.

Question: And the “Stool Character (group's average score)” value (Male HLA-B27 rats [4]; Study A, 50 mg/kg s.c. once per day, Day 3)?
Answer: Its value is 1.8.

Question: What about the “Stool Character (group's average score)” value (Male HLA-B27 rats [4]; Study A, 50 mg/kg s.c. once per day, Day 4) of the same molecule?
Answer: The value was 1.6.

Question: What about the “Stool Character (group's average score)” value (Male HLA-B27 rats [4]; Study A, 50 mg/kg s.c. once per day, Day 5) of the same molecule?
Answer: The value was 1.6.

Question: What about the “Stool Character (group's average score)” value (Male HLA-B27 rats [4]; Study A, 50 mg/kg s.c. once per day, Day 6) of the same molecule?
Answer: The value was 1.4.

Question: And the “Stool Character (group's average score)” value (Male HLA-B27 rats [4]; Study C, oral 10 mg/kg once per day, Day 1)?
Answer: The value was 2.75.

Question: And the “Stool Character (group's average score)” value (Male HLA-B27 rats [4]; Study C, oral 10 mg/kg once per day, Day 2)?
Answer: The value was 2.75.

Question: And the “Stool Character (group's average score)” value (Male HLA-B27 rats [4]; Study C, oral 10 mg/kg once per day, Day 3)?
Answer: Its value is 2.75.

Question: What about the “Stool Character (group's average score)” value (Male HLA-B27 rats [4]; Study C, oral 10 mg/kg once per day, Day 4) of the same molecule?
Answer: The value was 2.5.

Question: And the “Stool Character (group's average score)” value (Male HLA-B27 rats [4]; Study C, oral 10 mg/kg once per day, Day 5)?
Answer: Its value is 2.

Question: What about the “Stool Character (group's average score)” value (Male HLA-B27 rats [4]; Study C, oral 10 mg/kg once per day, Day 6) of the same molecule?
Answer: Its value is 2.5.

Question: What about the “Stool Character (group's average score)” value (Male HLA-B27 rats [4]; Study C, oral 10 mg/kg once per day, Day 7) of the same molecule?
Answer: The value was 2.25.

Question: What about the “Stool Character (group's average score)” value (Male HLA-B27 rats [4]; Study C, oral 10 mg/kg once per day, Day 8) of the same molecule?
Answer: The value was 2.25.

Question: What about the “Stool Character (group's average score)” value (Male HLA-B27 rats [4]; Study C, oral 10 mg/kg once per day, Day 9) of the same molecule?
Answer: The value was 2.25.

Question: And the “Stool Character (group's average score)” value (Male HLA-B27 rats [4]; Study C, oral 10 mg/kg once per day, Day 10)?
Answer: The value was 2.25.

Question: And the “Stool Character (group's average score)” value (Male HLA-B27 rats [4]; Study C, oral 10 mg/kg once per day, Day 11)?
Answer: The value was 2.25.

Question: And the “Stool Character (group's average score)” value (Male HLA-B27 rats [4]; Study C, oral 10 mg/kg once per day, Day 12)?
Answer: The value was 1.75.

Question: And the “Stool Character (group's average score)” value (Male HLA-B27 rats [4]; Study C, oral 10 mg/kg once per day, Day 13)?
Answer: Its value is 2.25.

Question: And the “Stool Character (group's average score)” value (Male HLA-B27 rats [4]; Study C, oral 10 mg/kg once per day, Day 14)?
Answer: Its value is 2.

Question: What about the “Stool Character (group's average score)” value (Male HLA-B27 rats [4]; Study C, oral 10 mg/kg once per day, Day 15) of the same molecule?
Answer: The value was 1.75.

Question: What about the “Stool Character (group's average score)” value (Male HLA-B27 rats [4]; Study C, oral 10 mg/kg once per day, Day 16) of the same molecule?
Answer: Its value is 1.75.

Question: What about the “Stool Character (group's average score)” value (Male HLA-B27 rats [4]; Study C, oral 10 mg/kg once per day, Day 17) of the same molecule?
Answer: Its value is 1.75.

Question: What about the “Stool Character (group's average score)” value (Male HLA-B27 rats [4]; Study C, oral 10 mg/kg once per day, Day 18) of the same molecule?
Answer: The value was 1.75.

Question: What about the “Stool Character (group's average score)” value (Male HLA-B27 rats [4]; Study C, oral 10 mg/kg once per day, Day 19) of the same molecule?
Answer: The value was 1.75.

Question: What about the “Stool Character (group's average score)” value (Male HLA-B27 rats [4]; Study C, oral 10 mg/kg once per day, Day 20) of the same molecule?
Answer: Its value is 1.75.

Question: And the “Stool Character (group's average score)” value (Male HLA-B27 rats [4]; Study C, oral 10 mg/kg once per day, Day 21)?
Answer: The value was 1.75.

Question: And the “Stool Character (group's average score)” value (Male HLA-B27 rats [4]; Study C, oral 10 mg/kg once per day, Day 22)?
Answer: Its value is 1.75.

Question: And the “Stool Character (group's average score)” value (Male HLA-B27 rats [4]; Study C, oral 10 mg/kg once per day, Day 23)?
Answer: Its value is 1.75.

Question: And the “Stool Character (group's average score)” value (Male HLA-B27 rats [4]; Study C, oral 10 mg/kg once per day, Day 24)?
Answer: Its value is 2.

Question: What about the “Stool Character (group's average score)” value (Male HLA-B27 rats [4]; Study C, oral 20 mg/kg once per day (10 mg/kg earlier), Day 25) of the same molecule?
Answer: The value was 2.

Question: And the “Stool Character (group's average score)” value (Male HLA-B27 rats [4]; Study C, oral 20 mg/kg once per day (10 mg/kg earlier), Day 26)?
Answer: Its value is 2.25.

Question: What about the “Stool Character (group's average score)” value (Male HLA-B27 rats [4]; Study C, oral 20 mg/kg once per day (10 mg/kg earlier), Day 27) of the same molecule?
Answer: The value was 1.75.

Question: And the “Stool Character (group's average score)” value (Male HLA-B27 rats [4]; Study C, oral 20 mg/kg once per day (10 mg/kg earlier), Day 28)?
Answer: The value was 1.75.

Question: What about the “Stool Character (group's average score)” value (Male HLA-B27 rats [4]; Study C, oral 20 mg/kg once per day (10 mg/kg earlier), Day 29) of the same molecule?
Answer: Its value is 1.5.

Question: And the “Stool Character (group's average score)” value (Male HLA-B27 rats [4]; Study C, oral 20 mg/kg once per day (10 mg/kg earlier), Day 30)?
Answer: Its value is 1.5.

Question: What about the “Stool Character (group's average score)” value (Male HLA-B27 rats [4]; Study C, oral 20 mg/kg once per day (10 mg/kg earlier), Day 31) of the same molecule?
Answer: Its value is 1.5.

Question: What about the “Stool Character (group's average score)” value (Male HLA-B27 rats [4]; Study C, oral 20 mg/kg once per day (10 mg/kg earlier), Day 32) of the same molecule?
Answer: Its value is 1.5.

Question: And the “Stool Character (group's average score)” value (Male HLA-B27 rats [4]; Study C, oral 20 mg/kg once per day (10 mg/kg earlier), Day 33)?
Answer: The value was 1.75.

Question: What about the “Stool Character (group's average score)” value (Male HLA-B27 rats [4]; Study C, oral 20 mg/kg once per day (10 mg/kg earlier), Day 34) of the same molecule?
Answer: The value was 1.75.

Question: And the “Stool Character (group's average score)” value (Male HLA-B27 rats [4]; Study C, oral 20 mg/kg once per day (10 mg/kg earlier), Day 35)?
Answer: The value was 1.5.

Question: What about the “Stool Character (group's average score)” value (Male HLA-B27 rats [4]; Study C, oral 20 mg/kg once per day (10 mg/kg earlier), Day 36) of the same molecule?
Answer: The value was 1.5.

Question: What about the “Stool Character (group's average score)” value (Male HLA-B27 rats [4]; Study C, oral 20 mg/kg once per day (10 mg/kg earlier), Day 37) of the same molecule?
Answer: Its value is 1.25.

Question: And the “Stool Character (group's average score)” value (Male HLA-B27 rats [4]; Study C, oral 20 mg/kg once per day (10 mg/kg earlier), Day 38)?
Answer: Its value is 1.75.

Question: And the “Stool Character (group's average score)” value (Male HLA-B27 rats [4]; Study C, oral 20 mg/kg once per day (10 mg/kg earlier), Day 39)?
Answer: Its value is 1.75.

Question: And the “Stool Character (group's average score)” value (Male HLA-B27 rats [4]; Study C, oral 20 mg/kg once per day (10 mg/kg earlier), Day 40)?
Answer: The value was 1.5.

Question: What about the “Stool Character (group's average score)” value (Male HLA-B27 rats [4]; Study C, oral 20 mg/kg once per day (10 mg/kg earlier), Day 41) of the same molecule?
Answer: Its value is 1.75.

Question: And the “Stool Character (group's average score)” value (Male HLA-B27 rats [4]; Study C, oral 20 mg/kg once per day (10 mg/kg earlier), Day 42)?
Answer: The value was 1.5.

Question: And the “Stool Character (group's average score)” value (Male HLA-B27 rats [4]; Study C, oral 20 mg/kg once per day (10 mg/kg earlier), Day 43)?
Answer: Its value is 1.5.

Question: And the “Stool Character (group's average score)” value (Male HLA-B27 rats [4]; Study C, oral 20 mg/kg once per day (10 mg/kg earlier), Day 44)?
Answer: The value was 1.5.

Question: And the “Stool Character (group's average score)” value (Male HLA-B27 rats [4]; Study C, oral 20 mg/kg once per day (10 mg/kg earlier), Day 45)?
Answer: Its value is 1.25.

Question: And the “Stool Character (group's average score)” value (Male HLA-B27 rats [4]; Study C, oral 20 mg/kg once per day (10 mg/kg earlier), Day 46)?
Answer: The value was 1.25.

Question: And the “Total disease score versus vehicle” value (Male HLA-B27 rats [5])?
Answer: Its value is “significantly reduced total disease score”.

From US20060046968A1, “Prodrug substituted benzoxazoles as estrogenic agents” (priority 2004, published 2006)
